Measured values published in PubChem BioAssay (NCI).
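Five concentrations, 48 hours, 96-well plates. TGI: concentration producing complete growth inhibition.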

Experiments:
Assay in all cases: DTP human tumour cell line panel, 48 h
[1] = tested on: RPMI-8226 leukemia
[2] = tested on: HCC-2998 colon
[3] = tested on: HCT-116 colon
[4] = tested on: SK-MEL-5 melanoma
[5] = tested on: EKVX NSCLC
[6] = tested on: COLO 205 colon
[7] = tested on: SK-OV-3 ovarian
[8] = tested on: UO-31 renal
[9] = tested on: HOP-92 NSCLC
[10] = tested on: LOX IMVI melanoma
[11] = tested on: 786-0 renal
[12] = tested on: XF 498 CNS
[13] = tested on: M19-MEL melanoma
[14] = tested on: OVCAR-8 ovarian
[15] = tested on: A498 renal
[16] = tested on: K-562 leukemia
[17] = tested on: U251 CNS
[18] = tested on: TK-10 renal
[19] = tested on: UACC-62 melanoma
[20] = tested on: OVCAR-3 ovarian
[21] = tested on: SF-295 CNS
[22] = tested on: A549 NSCLC
[23] = tested on: RXF 393 renal
[24] = tested on: MOLT-4 leukemia
[25] = tested on: SK-MEL-2 melanoma
[26] = tested on: MALME-3M melanoma
[27] = tested on: CAKI-1 renal
[28] = tested on: SN12C renal
[29] = tested on: SNB-19 CNS
[30] = tested on: CCRF-CEM leukemia
[31] = tested on: UACC-257 melanoma
[32] = tested on: SK-MEL-28 melanoma
[33] = tested on: HL-60(TB) leukemia
[34] = tested on: NCI-H522 lung
[35] = tested on: NCI-H23 lung
[36] = tested on: SNB-78 CNS
[37] = tested on: HT29 colon
[38] = tested on: LXFL 529 NSCLC
[39] = tested on: M14 melanoma
[40] = tested on: DLD-1 colon
[41] = tested on: HOP-62 NSCLC
[42] = tested on: IGROV1 ovarian
[43] = tested on: RXF-631 renal
[44] = tested on: HCT-15 colon
[45] = tested on: SF-268 CNS
[46] = tested on: DMS 114 small cell lung
[47] = tested on: SF-539 CNS
[48] = tested on: NCI-H460 lung
[49] = tested on: DMS 273 small cell lung
[50] = tested on: KM12 colon
[51] = tested on: SNB-75 CNS
[52] = tested on: SW-620 colon
[53] = tested on: OVCAR-4 ovarian

Measured: TGI

COC(=O)C1C(=O)N(CCc2c[nH]c3ccccc23)C[C@@H]2CCC(=O)C[C@H]12 (stereo partly drawn)
> 100 µM: [1] | [2] | [3] | [4] | [5] | [6] | [7] | [8] | [9] | [10] | [11] | [12] | [13] | [14] | [15] | [16] | [17] | [18] | [19] | [20] | [21] | [22] | [23] | [24] | [25] | [26] | [27] | [28] | [29] | [30] | [31] | [32] | [33] | [34] | [35] | [36] | [37] | [38] | [39] | [40] | [41] | [42] | [43] | [44] | [45] | [46] | [47] | [48] | [49] | [50] | [51] | [52] | [53]
